Results from ChEMBL document CHEMBL1201862, “PubChem BioAssay data set” (2004).
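Results reflect a 48-hour exposure of cells in 96-well plates to compound at five concentrations. GI50 = concentration required for 50% inhibition of growth.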 Calls of active or inactive are those of the source. Rule as the data show it: active = GI50 up to about 1.1 µM and inactive = higher.

Experiments:
Assay in all cases: growth of human tumour cells (NCI), 48 h
[1] = system: A498
[2] = system: CCRF-CEM
[3] = system: DU-145
[4] = system: HCC 2998
[5] = system: HCT-15
[6] = system: IGROV-1
[7] = system: MCF7
[8] = system: MDA-N
[9] = system: NCI-H23
[10] = system: OVCAR-3
[11] = system: SF-268
[12] = system: SF-295
[13] = system: SK-MEL-28
[14] = system: SNB-19
[15] = system: SNB-75
[16] = system: SW-620
[17] = system: T47D
[18] = system: TK-10
[19] = system: U-251
[20] = system: UO-31

With `CCc1nc(N)nc(N)c1-c1ccc2c(c1)nnn2CCc1ccccc1` the GI50 [1] was 24.1 µM (inactive), the GI50 [2] was 7.23 µM (inactive) and the GI50 [3] was 23.9 µM (inactive). For the same molecule, the GI50 [4] was 13.9 µM (inactive), the GI50 [5] was 3.09 µM and the GI50 [6] was 4.72 µM (inactive). The GI50 [7] was 21.1 µM (inactive), the GI50 [8] was 6.1 µM (inactive) and the GI50 [9] was 12.6 µM (inactive). The GI50 [10] was 16.6 µM (inactive), the GI50 [11] was 10.3 µM (inactive) and the GI50 [12] was 8.3 µM (inactive). The GI50 [13] was 31.4 µM (inactive), the GI50 [14] was 23.9 µM (inactive) and the GI50 [15] was 15.8 µM (inactive). For the same molecule, the GI50 [16] was 4.92 µM (inactive), the GI50 [17] was 23.4 µM (inactive) and the GI50 [18] was 35.4 µM (inactive). For the same molecule, the GI50 [19] was 7.69 µM (inactive) and the GI50 [20] was 16.3 µM (inactive).

For `CC(C)=CCCC(C)CCOS(=O)C(F)(F)F` (stereo not given), the GI50 [1] was 20.8 µM (inactive), the GI50 [2] was 4.29 µM (inactive) and the GI50 [3] was 35.3 µM (inactive). For the same molecule, the GI50 [4] was 13.2 µM (inactive), the GI50 [5] was 2.49 µM and the GI50 [6] was 12.8 µM (inactive). For the same molecule, the GI50 [7] was 34.7 µM (inactive), the GI50 [8] was 1.6 µM (inactive) and the GI50 [9] was 2.58 µM (inactive). The GI50 [10] was 11.2 µM (inactive), the GI50 [11] was 17.7 µM (inactive) and the GI50 [12] was 25.1 µM (inactive). The GI50 [13] was 11 µM (inactive), the GI50 [14] was 22.1 µM (inactive) and the GI50 [15] was 20.5 µM (inactive). The GI50 [16] was 3.29 µM (inactive), the GI50 [17] was 43.7 µM (inactive) and the GI50 [18] was > 100 µM (inactive). For the same molecule, the GI50 [19] was 9.66 µM (inactive) and the GI50 [20] was 13.1 µM (inactive).

With `Cc1ccc(C(=O)O)c(/C=C2\Cc3ccc(C)cc3C2=O)c1` the GI50 [1] was 65.9 µM (inactive), the GI50 [2] was 51.3 µM (inactive) and the GI50 [3] was 79.8 µM (inactive). For the same molecule, the GI50 [4] was 38.9 µM (inactive), the GI50 [5] was 56.4 µM and the GI50 [6] was > 100 µM (inactive). For the same molecule, the GI50 [7] was 63.5 µM (inactive), the GI50 [8] was 37.8 µM (inactive) and the GI50 [9] was 75.3 µM (inactive). The GI50 [10] was 31.8 µM (inactive), the GI50 [11] was 41 µM (inactive) and the GI50 [12] was 38.1 µM (inactive). For the same molecule, the GI50 [13] was 78.9 µM (inactive), the GI50 [14] was 45.1 µM (inactive) and the GI50 [15] was 34 µM (inactive). The GI50 [16] was > 100 µM (inactive), the GI50 [17] was 92 µM (inactive) and the GI50 [18] was > 100 µM (inactive). For the same molecule, the GI50 [19] was 34 µM (inactive) and the GI50 [20] was 62.1 µM (inactive).

For `CCN(/C=C1/C(=O)C(c2ccccc2)N(c2ccccc2)C1=O)CC` (stereo not given), the GI50 [1] was > 10 µM (inactive), the GI50 [2] was > 10 µM (inactive) and the GI50 [3] was > 10 µM (inactive). The GI50 [4] was > 10 µM (inactive), the GI50 [5] was greater than 10 µM and the GI50 [6] was > 10 µM (inactive). The GI50 [7] was > 10 µM (inactive), the GI50 [8] was > 10 µM (inactive) and the GI50 [9] was > 10 µM (inactive). For the same molecule, the GI50 [10] was > 10 µM (inactive), the GI50 [11] was > 10 µM (inactive) and the GI50 [12] was > 10 µM (inactive). For the same molecule, the GI50 [13] was > 10 µM (inactive), the GI50 [14] was > 10 µM (inactive) and the GI50 [15] was 6.44 µM (inactive). The GI50 [16] was > 10 µM (inactive), the GI50 [17] was > 10 µM (inactive) and the GI50 [18] was > 10 µM (inactive). For the same molecule, the GI50 [19] was > 10 µM (inactive) and the GI50 [20] was > 10 µM (inactive).
